Holding throughout (type): functional
For assay [1], the system named is HeLa. Kind of assay: Induction of apoptosis in human HeLa cells assessed as late apoptotic cells at 26.1 uM incubated for 48 hrs by annexinV-FITC/propidium iodide staining based flow cytometry analysis (reference value: 0.1%). On the technique in general: In flow cytometry, cells or beads pass a laser one at a time.
In assay [2] the test system is HeLa. Briefly: Induction of apoptosis in human HeLa cells assessed as viable cells at 26.1 uM incubated for 48 hrs by annexinV-FITC/propidium iodide staining based flow cytometry analysis (reference value: 99.8%). Conditions: read-out: Activity.
The subject of assay [3] is HeLa. Kind of assay: Induction of apoptosis in human HeLa cells assessed as early apoptotic cells at 13.2 uM incubated for 48 hrs by annexinV-FITC/propidium iodide staining based flow cytometry analysis (reference value: 0.1%).
For assay [4], the system named is HeLa. Briefly: Induction of apoptosis in human HeLa cells assessed as necrotic cells at 13.2 uM incubated for 48 hrs by annexinV-FITC/propidium iodide staining based flow cytometry analysis (reference value: 0.0%).
The test system of assay [5] is HeLa. Kind of assay: Induction of apoptosis in human HeLa cells assessed as viable cells at 19.6 uM incubated for 48 hrs by annexinV-FITC/propidium iodide staining based flow cytometry analysis (reference value: 99.8%). Conditions: read-out: Activity.
Assay [6] deals with HeLa. Kind of assay: Induction of cell cycle arrest in human HeLa cells assessed as <2N cells at 12.3 uM incubated for 24 hrs by RNAse A/PI staining based flow cytometric analysis (reference value: 41.6%).
Assay [7] deals with HeLa. Briefly: Induction of cell cycle arrest in human HeLa cells assessed as <2N cells at 24.6 uM incubated for 48 hrs by RNAse A/PI staining based flow cytometric analysis (reference value: 41.6%).
Assay [8] relates to HeLa. Briefly: Induction of cell cycle arrest in human HeLa cells assessed as 2N cells at 24.6 uM incubated for 48 hrs by RNAse A/PI staining based flow cytometric analysis (reference value: 29.9%).
Assay [9] deals with HeLa. Kind of assay: Induction of cell cycle arrest in human HeLa cells assessed as S phase cells at 24.6 uM incubated for 48 hrs by RNAse A/PI staining based flow cytometric analysis (reference value: 20.5%).
In assay [10] the test system is HeLa. Kind of assay: Induction of cell cycle arrest in human HeLa cells assessed as 4N cells at 24.6 uM incubated for 48 hrs by RNAse A/PI staining based flow cytometric analysis (reference value: 5.37%).
The subject of assay [11] is HeLa. Briefly: Induction of cell cycle arrest in human HeLa cells assessed as accumulation at G2/M phase at 6.2 uM by RNAse A/PI staining based flow cytometric analysis relative to control.

Molecules are shown by their SMILES.

Consider `CC[C@H](C)[C@@H]1NC(=O)[C@H](CC(C)C)NC(=O)[C@@H]2CSCN2C(=O)[C@@H]2CSCN2C(=O)CN2C(=O)c3ccccc3[C@@]2(O)CN(Cc2ccccc2)C1=O`, for which the Activity in the assay on HeLa [1] was determined as 6.4%; in the assay on HeLa [3] it was 5.6%; in the assay on HeLa [4], 2.6%; with HeLa [6], 33%; in the assay with HeLa [7], 14.4%; in the assay on HeLa [8], 28.8%. The values for the Activity in the assay with HeLa [9], in the assay on HeLa [10] and with HeLa [11] were 5.72%, 47.5% and 17%, respectively. Further, the viability at 26.1 µM in the assay on HeLa [2] was found to be 58%. Also, in the assay on HeLa [5], the viability at 19.6 µM was 68.6%.

For the origin of these results see ChEMBL document CHEMBL5120939, “Novel Isoindolinone-Based Analogs of the Natural Cyclic Peptide Fenestin A: Synthesis and Antitumor Activity” (ACS Med Chem Lett, 2022).
